Assay results as given in article PMC11999338, “Factor XI localization in human deep venous thrombus and function of activated factor XI on venous thrombus formation and hemostasis” (Research and Practice in Thrombosis and Haemostasis, 2025).
Entries after “also recorded” stand apart in the source; their conditions may differ.

Key:
PT and aPTT [1] = experiment: Coagulation parameters (PT, aPTT) after oral administration in rabbits, denudation/stenosis model; assay type: in vivo, rabbit
Protocol: The protocols of the venous thrombosis and skin bleeding models in rabbits were as follows (Supplementary Figure 2). First, fasting rabbits were orally administered a solvent as a control (n = 10), a FXIa inhibitor (ONO-1600586, 5 mg/kg, n = 10; 15 mg/kg, n = 10; and 50 mg/kg, n = 11), or a FXa inhibitor (rivaroxaban, 1.5 mg/kg, 5 mg/kg, and 15 mg/kg, n = 10 each) using a Nelaton catheter of 5 mm diameter (IZUMO Health Co, Ltd) 90 minutes before thrombus formation. The thrombus formation and bleeding were performed under general anesthesia through the subcutaneous injection of a mixture of medetomidine hydrochloride (0.08 mg/kg body weight), butorphanol tartrate (0.2 mg/kg), and midazolam (0.4 mg/kg). Additional anesthesia with one-third amount of the above-mentioned mixture of drugs was administered 80 minutes after the first injection, and all surgical operations proceeded under aseptic conditions.
Blood samples were collected from the central ear arteries of rabbits before and 75 minutes and 4.5 hours after the administration of the solvent, ONO-1600586, and rivaroxaban in 3.8% sodium citrate (9:1 v/v) using 21-gauge needles. Plasma samples were centrifuged at 1500 × g for 15 minutes at room temperature. Prothrombin time (PT) and activated partial thromboplastin time (aPTT) were measured using a coagulation timer (KC-1 Delta, Tcoag Ireland Ltd) and reagents (aPTT: ACTIN, Siemens; PT: THROMBOCHECK PT+, Sysmex).

skin bleeding = experiment: Rabbit skin bleeding time and volume; assay type: in vivo; details: rabbits; for bleeding time / bleeding volume: skin incision 90 minutes after oral administration, ONO-1600586 5, 15, 50 mg/kg, rivaroxaban 1.5, 5, 15 mg/kg
Protocol: The protocols of the venous thrombosis and skin bleeding models in rabbits were as follows (Supplementary Figure 2). First, fasting rabbits were orally administered a solvent as a control (n = 10), a FXIa inhibitor (ONO-1600586, 5 mg/kg, n = 10; 15 mg/kg, n = 10; and 50 mg/kg, n = 11), or a FXa inhibitor (rivaroxaban, 1.5 mg/kg, 5 mg/kg, and 15 mg/kg, n = 10 each) using a Nelaton catheter of 5 mm diameter (IZUMO Health Co, Ltd) 90 minutes before thrombus formation. […] Additional anesthesia with one-third amount of the above-mentioned mixture of drugs was administered 80 minutes after the first injection, and all surgical operations proceeded under aseptic conditions. Ninety minutes after administering the solvent, rivaroxaban (1.5, 5, and 15 mg/kg), and ONO-1600586 (5, 15, and 50 mg/kg), skin bleeding was induced using 2 lines of 3 cm length incisions on both legs of the rabbit. Next, wet Kimwipes (Kimberly-Clark Corp) were placed on the injured lesions, and the bleeding time was measured. To measure the bleeding volume, we collected the Kimwipes into a falcon tube filled with 20 mL of saline each, 1 to 2 minutes for 30 minutes, and then removed the Kimwipes. The collected blood was centrifuged at 900 × g for 5 minutes at room temperature, and the supernatant was discarded. One milliliter of distilled water was added to the pellet and then hemolyzed. The bleeding volume was estimated using a spectrophotometer at 540 nm (SpectraMax 190 Microplate Reader, Molecular Devices, LLC). A standard curve was generated through the sequential dilution of rabbit blood. Finally, the number of erythrocytes was measured using a hematology analyzer (XP-300, Sysmex).

jugular vein thrombus = experiment: Stasis-induced thrombus formation in rabbit jugular veins; assay type: in vivo; details: rabbits, oral ONO-1600586 50 mg/kg or rivaroxaban 15 mg/kg 60 minutes before stasis, 6 hours stasis
Protocol: The protocols of venous thrombosis by stasis were as follows (Supplementary Figure 4). First, fasting rabbits were orally administered a solvent as a control (n = 8), a FXIa inhibitor (ONO-1600586, 50 mg/kg, n = 8), or a FXa inhibitor (rivaroxaban, 15 mg/kg, n = 8) using a Nelaton catheter of 5 mm diameter (IZUMO Health Co, Ltd) 60 minutes before thrombus formation. The process of thrombus formation was performed under general anesthesia through the subcutaneous injection of a mixture of medetomidine hydrochloride (0.08 mg/kg body weight), butorphanol tartrate (0.2 mg/kg), and midazolam (0.4 mg/kg). Briefly, 60 minutes postadministration of the solvent, ONO-1600586, or rivaroxaban, venous thrombi were induced in rabbit jugular veins by ligations and luminal stenosis. To induce luminal stenosis, a 1 mm polyethylene tube was placed outside the vessel. Both the jugular vein and polyethylene tube were ligated 4 cm upstream of the ligature, and the tube was removed (Supplementary Figure 5). Next, 6 hours after stasis in the jugular vein, the rabbits were infused with heparin (500 U/kg, i.v.). They were then euthanized with an overdose of pentobarbital (60 mg/kg, i.v.), and the jugular veins were sampled. In this model, the animals were not perfused with phosphate-buffered saline because the thrombi were fragile. The venous thrombi were immediately removed from the venous wall and weighed.

PT and aPTT [2] = experiment: PT and aPTT after oral administration in rabbit stasis model; assay type: in vivo; details: rabbits, stasis model, 1, 3, and 7 hours; ONO-1600586 50 mg/mL, rivaroxaban 15 mg/mL (so in the source)
Protocol: The protocols of venous thrombosis by stasis were as follows (Supplementary Figure 4). First, fasting rabbits were orally administered a solvent as a control (n = 8), a FXIa inhibitor (ONO-1600586, 50 mg/kg, n = 8), or a FXa inhibitor (rivaroxaban, 15 mg/kg, n = 8) using a Nelaton catheter of 5 mm diameter (IZUMO Health Co, Ltd) 60 minutes before thrombus formation. The process of thrombus formation was performed under general anesthesia through the subcutaneous injection of a mixture of medetomidine hydrochloride (0.08 mg/kg body weight), butorphanol tartrate (0.2 mg/kg), and midazolam (0.4 mg/kg).
Blood samples were collected from the central ear arteries of the rabbits before and 1, 3, and 7 hours after administering the solvent, ONO-1600586, and rivaroxaban in 3.8% sodium citrate (9:1 v/v) using 21-gauge needles. Plasma samples were centrifuged at 1500 × g for 15 minutes at room temperature. PT and aPTT were measured using a coagulation timer (KC-1 Delta, Tcoag Ireland Ltd) and reagents (aPTT: ACTIN, Siemens; PT: THROMBOCHECK PT+, Sysmex). Data are expressed as a ratio of PT and aPTT to those before administration.

[3] = 75 minutes after oral administration, ONO-1600586 5, 15, 50 mg/kg, rivaroxaban 1.5, 5, 15 mg/kg
[4] = 4.5 hours after oral administration, ONO-1600586 50 mg/mL, rivaroxaban 15 mg/mL (so in the source)

- bleeding time compared with the control (skin bleeding; 15 mg/kg oral): significantly prolonged
- bleeding volume compared with the control (skin bleeding; 15 mg/kg oral): increased
- bleeding time (skin bleeding): prolonged bleeding time
- bleeding time (skin bleeding; listed as Rivaroxaban): dose-dependently prolonged
- bleeding volume (skin bleeding; listed as Rivaroxaban): increased
SMILES: O=C(NC[C@H]1CN(c2ccc(N3CCOCC3=O)cc2)C(=O)O1)c1ccc(Cl)s1 [rivaroxaban]
- PT after oral administration (PT and aPTT [1]; [3]): dose-dependently prolonged
- aPTT after oral administration (PT and aPTT [1]; [3]): dose-dependently prolonged
- PT after oral administration (PT and aPTT [1]; [4]): prolonged
- aPTT after oral administration (PT and aPTT [1]; [4]): prolonged
- bleeding volume (skin bleeding): increased bleeding volume dose-dependently
- stasis-induced venous thrombus weight compared with control (jugular vein thrombus): significantly reduced; also recorded: similarly reduced
- PT after oral administration (PT and aPTT [2]): prolonged
- aPTT after oral administration (PT and aPTT [2]): prolonged
